According to patent US20230002367A1, “BIFUNCTIONAL COMPOUNDS” (Hoffmann-La Roche Inc., priority 2019, published 2023):
Where two headings read alike, the source gives them in different places.

Target: T1, SMARCA2 (Homo sapiens, UniProt P51531)
T1 construct: endogenous in cells
Experiment: SMARCA2 HiBiT degradation assay (cellular)
Type: cell-based
Conditions: for DC50: read-out: HiBit A549 SMARCA2 IP

[1] = A549, Emax = amount of residual protein remaining in the cell following compound treatment
[2] = SMARCA2 HiBiT cells, luminescence readout, 11-point titration from 10 μM, 6 hours or 16 hours
[3] = A549, different HIBIT SMARCA2 clone (footnote a), residual protein remaining
[4] = different HIBIT SMARCA2 clone (footnote a)

T1 sequence (P51531 whole entry): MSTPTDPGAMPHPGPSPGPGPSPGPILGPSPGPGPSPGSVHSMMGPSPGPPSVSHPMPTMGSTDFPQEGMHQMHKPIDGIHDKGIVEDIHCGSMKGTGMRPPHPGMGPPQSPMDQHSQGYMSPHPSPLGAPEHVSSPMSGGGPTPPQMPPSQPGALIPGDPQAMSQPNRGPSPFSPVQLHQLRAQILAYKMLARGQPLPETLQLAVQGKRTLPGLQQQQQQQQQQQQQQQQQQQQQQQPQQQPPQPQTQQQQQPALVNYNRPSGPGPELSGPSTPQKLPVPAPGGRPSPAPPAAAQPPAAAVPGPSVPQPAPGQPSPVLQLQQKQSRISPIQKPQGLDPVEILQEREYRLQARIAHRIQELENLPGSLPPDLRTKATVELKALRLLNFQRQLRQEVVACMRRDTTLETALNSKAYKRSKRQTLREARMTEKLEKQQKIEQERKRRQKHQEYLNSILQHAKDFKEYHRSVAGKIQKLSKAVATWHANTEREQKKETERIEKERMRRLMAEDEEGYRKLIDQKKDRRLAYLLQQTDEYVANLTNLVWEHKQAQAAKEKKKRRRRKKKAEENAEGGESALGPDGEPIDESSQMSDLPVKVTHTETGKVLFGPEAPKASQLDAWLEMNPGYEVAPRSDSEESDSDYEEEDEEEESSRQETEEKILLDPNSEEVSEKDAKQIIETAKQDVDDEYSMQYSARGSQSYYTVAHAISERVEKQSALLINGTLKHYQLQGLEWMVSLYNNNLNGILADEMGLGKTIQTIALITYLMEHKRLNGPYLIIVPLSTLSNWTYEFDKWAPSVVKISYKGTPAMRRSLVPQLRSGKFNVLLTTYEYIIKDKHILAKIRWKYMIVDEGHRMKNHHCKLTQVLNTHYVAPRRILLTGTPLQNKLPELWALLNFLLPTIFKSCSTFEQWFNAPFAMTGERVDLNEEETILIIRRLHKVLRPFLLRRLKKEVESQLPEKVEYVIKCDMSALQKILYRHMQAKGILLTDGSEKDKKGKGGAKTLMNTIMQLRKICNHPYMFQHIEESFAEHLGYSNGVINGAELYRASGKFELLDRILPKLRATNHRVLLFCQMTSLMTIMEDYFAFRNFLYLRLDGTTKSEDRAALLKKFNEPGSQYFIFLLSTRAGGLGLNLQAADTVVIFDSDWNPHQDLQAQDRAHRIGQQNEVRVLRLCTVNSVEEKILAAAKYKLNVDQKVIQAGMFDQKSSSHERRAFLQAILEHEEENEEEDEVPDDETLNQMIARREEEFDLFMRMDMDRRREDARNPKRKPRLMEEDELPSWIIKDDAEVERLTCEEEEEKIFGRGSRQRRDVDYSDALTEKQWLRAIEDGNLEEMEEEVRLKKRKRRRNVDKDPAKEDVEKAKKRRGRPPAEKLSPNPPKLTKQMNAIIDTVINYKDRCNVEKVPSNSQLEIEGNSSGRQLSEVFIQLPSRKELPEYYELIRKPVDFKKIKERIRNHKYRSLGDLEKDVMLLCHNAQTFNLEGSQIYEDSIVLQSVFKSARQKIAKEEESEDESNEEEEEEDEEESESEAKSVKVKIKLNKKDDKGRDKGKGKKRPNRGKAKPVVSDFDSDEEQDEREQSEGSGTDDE

| SMILES | Emax [1] [%] | DC50 [2] [µM] | Emax [3] [%] | DC50 [4] [µM] |
| --- | --- | --- | --- | --- |
| Cc1ncsc1-c1ccc(CNC(=O)[C@@H]2C[C@@H](O)CN2C(=O)[C@H](NC(=O)CCCCCC(=O)N2CCN(CCOc3cccc(N4C5CCC4CN(c4cc(-c6ccccc6O)nnc4N)C5)c3)CC2)C(C)(C)C)cc1 [Example 9, (2S,4R)-1-[(2R)-2-[[7-[4-[2-[3-[3-[3-amino-6-(2-hydroxyphenyl)pyridazin-4-yl]-3,8-diazabicyclo[3.2.1]octan-8-yl]phenoxy]ethyl]piperazin-1-yl]-7-oxo-heptanoyl]amino]-3,3-dimethyl-butanoyl]-4-hydroxy-N-[[4-(4-methylthiazol-5-yl)phenyl]methyl]pyrrolidine-2-carboxamide] | 58 | 0.733 | – | – |
| Cc1ncsc1-c1ccc(CNC(=O)[C@@H]2C[C@@H](O)CN2C(=O)[C@@H](NC(=O)CCCCCCCCC(=O)N2CCN(c3ccc(N4CCCC(Oc5cc(-c6cc(F)ccc6O)nnc5N)C4)cc3)CC2)C(C)(C)C)cc1 (mixture of isomers) [Example 108, rac-(2S,4R)-4-hydroxy-N-[[4-(4-methylthiazol-5-yl)phenyl]methyl]-1-[rac-(2S)-2-[[10-[4-[4-[3-[3-amino-6-(5-fluoro-2-hydroxy-phenyl)pyridazin-4-yl]oxy-1-piperidyl]phenyl]piperazin-1-yl]-10-oxo-decanoyl]amino]-3,3-dimethyl-butanoyl]pyrrolidine-2-carboxamide] | – | – | 7.9 | 0.068 |
| Cc1ncsc1-c1ccc(CNC(=O)[C@@H]2C[C@@H](O)CN2C(=O)[C@@H](NC(=O)CCCCCCCCCC(=O)N2CCN(CCOc3cccc(N4C5CCC4CN(c4cc(-c6ccccc6O)nnc4N)C5)c3)CC2)C(C)(C)C)cc1 [Example 11, (2S,4R)-1-[(2S)-2-[[11-[4-[2-[3-[3-[3-amino-6-(2-hydroxyphenyl)pyridazin-4-yl]-3,8-diazabicyclo[3.2.1]octan-8-yl]phenoxy]ethyl]piperazin-1-yl]-11-oxo-undecanoyl]amino]-3,3-dimethyl-butanoyl]-4-hydroxy-N-[[4-(4-methylthiazol-5-yl)phenyl]methyl]pyrrolidine-2-carboxamide] | 20 | 0.104 | – | – |
| Cc1ncsc1-c1ccc(CNC(=O)[C@@H]2C[C@H](O)CN2C(=O)[C@@H](NC(=O)CCCCCCCCCC(=O)N2CCC(Cc3cccc(N4C5CCC4CN(c4cc(-c6ccccc6O)nnc4N)C5)c3)CC2)C(C)(C)C)cc1 [Example 15, (2S,4S)-1-[(2S)-2-[[11-[4-[[3-[3-[3-amino-6-(2-hydroxyphenyl)pyridazin-4-yl]-3,8-diazabicyclo[3.2.1]octan-8-yl]phenyl]methyl]-1-piperidyl]-11-oxo-undecanoyl]amino]-3,3-dimethyl-butanoyl]-4-hydroxy-N-[[4-(4-methylthiazol-5-yl)phenyl]methyl]pyrrolidine-2-carboxamide] | 24 | 0.487 | – | – |
| Cc1ncsc1-c1ccc(CNC(=O)[C@@H]2C[C@@H](O)CN2C(=O)[C@@H](NC(=O)CCCCCCCCCCC(=O)N2CCN(CCOc3cccc(C#Cc4cc(-c5ccccc5O)nnc4N)c3)CC2)C(C)(C)C)cc1 [Example 36, (2S,4R)-1-[(2S)-2-[[12-[4-[2-[3-[2-[3-amino-6-(2-hydroxyphenyl)pyridazin-4-yl]ethynyl]phenoxy]ethyl]piperazin-1-yl]-12-oxo-dodecanoyl]amino]-3,3-dimethyl-butanoyl]-4-hydroxy-N-[[4-(4-methylthiazol-5-yl)phenyl]methyl]pyrrolidine-2-carboxamide] | 49 | 0.838 | – | – |
| Cc1ncsc1-c1ccc([C@H](C)NC(=O)[C@@H]2C[C@@H](O)CN2C(=O)[C@@H](NC(=O)CCCCCCCCCCCCC(=O)N2CCN(CCOc3ccc(N4CCCC(Oc5cc(-c6ccccc6O)nnc5N)C4)cc3)CC2)C(C)(C)C)cc1 (mixture of isomers) [Example 80, rac-(2S,4R)-4-hydroxy-1-[rac-(2S)-2-[[14-[4-[2-[4-[3-[3-amino-6-(2-hydroxyphenyl)pyridazin-4-yl]oxy-1-piperidyl]phenoxy]ethyl]piperazin-1-yl]-14-oxo-tetradecanoyl]amino]-3,3-dimethyl-butanoyl]-N-[rac-(1S)-1-[4-(4-methylthiazol-5-yl)phenyl]ethyl]pyrrolidine-2-carboxamide] | 25 | 0.383 | – | – |

More lines, now with the values ahead:

| Emax [1] [%] | DC50 [2] [µM] | Emax [3] [%] | DC50 [4] [µM] | SMILES |
| --- | --- | --- | --- | --- |
| 48 | 0.426 | – | – | Cc1ncsc1-c1ccc([C@H](C)NC(=O)[C@@H]2C[C@@H](O)CN2C(=O)[C@@H](NC(=O)CCC(=O)N2CCN(c3ccc(CN4CCCC(Oc5cc(-c6ccccc6O)nnc5N)C4)cc3)CC2)C(C)(C)C)cc1 (mixture of isomers) [Example 39, rac-(2S,4R)-4-hydroxy-1-[rac-(2S)-2-[[4-[4-[4-[[3-[3-amino-6-(2-hydroxyphenyl)pyridazin-4-yl]oxy-1-piperidyl]methyl]phenyl]piperazin-1-yl]-4-oxo-butanoyl]amino]-3,3-dimethyl-butanoyl]-N-[rac-(1S)-1-[4-(4-methylthiazol-5-yl)phenyl]ethyl]pyrrolidine-2-carboxamide] |
| 34 | 1.32 | – | – | Cc1ncsc1-c1ccc([C@H](C)NC(=O)[C@@H]2C[C@@H](O)CN2C(=O)[C@@H](NC(=O)CCCCCC(=O)N2CCN(c3cccc(N4CCCC(Oc5cc(-c6ccccc6O)nnc5N)C4)c3)CC2)C(C)(C)C)cc1 (mixture of isomers) [Example 90, rac-(2S,4R)-4-hydroxy-1-[rac-(2S)-2-[[7-[4-[3-[3-[3-amino-6-(2-hydroxyphenyl)pyridazin-4-yl]oxy-1-piperidyl]phenyl]piperazin-1-yl]-7-oxo-heptanoyl]amino]-3,3-dimethyl-butanoyl]-N-[rac-(1S)-1-[4-(4-methylthiazol-5-yl)phenyl]ethyl]pyrrolidine-2-carboxamide] |
| – | – | 23 | 0.285 | Cc1ncsc1-c1ccc(CNC(=O)[C@@H]2C[C@@H](O)CN2C(=O)[C@@H](NC(=O)CCCCCC(=O)N2CCN(c3ccc(N4CCCC(Oc5cc(-c6cc(F)ccc6O)nnc5N)C4)cc3)CC2)C(C)(C)C)cc1 (mixture of isomers) [Example 109, rac-(2S,4R)-4-hydroxy-N-[[4-(4-methylthiazol-5-yl)phenyl]methyl]-1-[rac-(2S)-2-[[7-[4-[4-[3-[3-amino-6-(5-fluoro-2-hydroxy-phenyl)pyridazin-4-yl]oxy-1-piperidyl]phenyl]piperazin-1-yl]-7-oxo-heptanoyl]amino]-3,3-dimethyl-butanoyl]pyrrolidine-2-carboxamide] |
| 60 | 1.66 | – | – | Cc1ncsc1-c1ccc([C@H](C)NC(=O)[C@@H]2C[C@@H](O)CN2C(=O)[C@@H](NC(=O)CCOCCC(=O)N(C)CC(COc2cc(-c3ccccc3O)nnc2N)c2ccccc2)C(C)(C)C)cc1 (mixture of isomers) [Example 49, rac-(2S,4R)-4-hydroxy-1-[rac-(2S)-2-[3-[3-[[3-[3-amino-6-(2-hydroxyphenyl)pyridazin-4-yl]oxy-2-phenyl-propyl]-methyl-amino]-3-oxo-propoxy]propanoylamino]-3,3-dimethyl-butanoyl]-N-[rac-(1S)-1-[4-(4-methylthiazol-5-yl)phenyl]ethyl]pyrrolidine-2-carboxamide] |
| 55 | 0.579 | – | – | Cc1ncsc1-c1ccc([C@H](C)NC(=O)[C@@H]2C[C@@H](O)CN2C(=O)[C@@H](NC(=O)CCCCCCCCCCCCC(=O)N2CCN(c3cccc(N4CCCC(Oc5cc(-c6ccccc6O)nnc5N)C4)c3)CC2)C(C)(C)C)cc1 (mixture of isomers) [Example 93, rac-(2S,4R)-4-hydroxy-1-[rac-(2S)-2-[[14-[4-[3-[3-[3-amino-6-(2-hydroxyphenyl)pyridazin-4-yl]oxy-1-piperidyl]phenyl]piperazin-1-yl]-14-oxo-tetradecanoyl]amino]-3,3-dimethyl-butanoyl]-N-[rac-(1S)-1-[4-(4-methylthiazol-5-yl)phenyl]ethyl]pyrrolidine-2-carboxamide] |
| 33 | 0.33 | – | – | Cc1ncsc1-c1ccc([C@H](C)NC(=O)[C@@H]2C[C@@H](O)CN2C(=O)[C@@H](NC(=O)CCCCCCCCCCC(=O)N(C)CCCN(C)c2ccc(CCOc3cc(-c4ccccc4O)nnc3N)cc2)C(C)(C)C)cc1 (racemic) [Example 27, N′-[3-[4-[2-[3-amino-6-(2-hydroxyphenyl)pyridazin-4-yl]oxyethyl]-N-methyl-anilino]propyl]-N′-methyl-N-[rac-(1S)-2,2-dimethyl-1-[rac-(2S,4R)-4-hydroxy-2-[[rac-(1S)-1-[4-(4-methylthiazol-5-yl)phenyl]ethyl]carbamoyl]pyrrolidine-1-carbonyl]propyl]dodecanediamide] |
| 39 | 0.952 | – | – | Cc1ncsc1-c1ccc(CNC(=O)[C@@H]2C[C@@H](O)CN2C(=O)[C@@H](NC(=O)CCCCCCCCC(=O)N2CCN(CCOc3cccc(C#Cc4cc(-c5ccccc5O)nnc4N)c3)CC2)C(C)(C)C)cc1 [Example 35, (2S,4R)-1-[(2S)-2-[[10-[4-[2-[3-[2-[3-amino-6-(2-hydroxyphenyl)pyridazin-4-yl]ethynyl]phenoxy]ethyl]piperazin-1-yl]-10-oxo-decanoyl]amino]-3,3-dimethyl-butanoyl]-4-hydroxy-N-[[4-(4-methylthiazol-5-yl)phenyl]methyl]pyrrolidine-2-carboxamide] |
| 19 | 0.348 | – | – | Cc1ncsc1-c1ccc([C@H](C)NC(=O)[C@@H]2C[C@@H](O)CN2C(=O)[C@@H](NC(=O)CCCCCCCCC(=O)N(C)CC(COc2cc(-c3ccccc3O)nnc2N)c2ccccc2)C(C)(C)C)cc1 (mixture of isomers) [Example 25, N′-[3-[3-amino-6-(2-hydroxyphenyl)pyridazin-4-yl]oxy-2-phenyl-propyl]-N′-methyl-N-[rac-(1S)-2,2-dimethyl-1-[rac-(2S,4R)-4-hydroxy-2-[[rac-(1S)-1-[4-(4-methylthiazol-5-yl)phenyl]ethyl]carbamoyl]pyrrolidine-1-carbonyl]propyl]decanediamide] |
